Test results from the supplement of paper PMC4314810.
± gives the standard deviation of the averaged measurements.

tested on: MCF7; experiment: HRG-induced Akt activation (dPAkt = log2 pAkt/Akt HRG-stimulated minus log2 pAkt/Akt basal) (log2 ratio difference); higher = stronger HRG-induced Akt(T308) phosphorylation; conditions: miRNA mimic concentration 10 nM; time after transfection 72 h; heregulin 10 ng/ml; stimulation time 1 h
Summary of the method: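 MCF7 cells were plated […] in 96-well plates and transfected in two biological replicates with a library of 879 miRNA mimics (10 nM final) using Lipofectamine RNAiMax; 72 h later they were stimulated for 1 h with 10 ng/ml heregulin-beta1 or left unstimulated. After fixation in 4% PFA, phospho-Akt(T308) and total Akt were measured by In-Cell Western on an Odyssey, with signals corrected for column-wise fixation decay. Heregulin-induced Akt activation is the stimulated minus unstimulated value of the log ratio of phospho-Akt to total Akt, averaged over replicates. That log ratio is log2(pAkt/Akt).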

How did the “HRG-induced Akt activation (log2)” value turn out when UCAGUAAAUGUUUAUUAGAUGA was run?
Its value is 1.671 ± 0.0072.

For UGUGCUUGCUCGUCCCGCCCGCA, which “HRG-induced Akt activation (log2)” value is on record?
The value was 1.82 ± 0.029.

Which “HRG-induced Akt activation (log2)” value does the source give for CAGUGCCUCGGCAGUGCAGCCC here?
The value was 1.45 ± 0.064.

UGAGGUAGGAGGUUGUAUAGUU was tested. Which “HRG-induced Akt activation (log2)” value did it give?
Its value is 1.11 ± 0.083.

Which “HRG-induced Akt activation (log2)” value does the source give for GGGUGGGGAUUUGUUGCAUUAC here?
Its value is 1.16 ± 0.097.

How did the “HRG-induced Akt activation (log2)” value turn out when UGAGGUAGUAGGUUGUAUGGUU was run?
Its value is 1.07 ± 0.07.

CCCCAGGGCGACGCGGCGGG was tested. Which “HRG-induced Akt activation (log2)” value did it give?
Its value is 2.057 ± 0.012.

For UCGGCCUGACCACCCACCCCAC, which “HRG-induced Akt activation (log2)” value is on record?
The value was 0.936 ± 0.2.

Which “HRG-induced Akt activation (log2)” value does the source give for CUAUACAAUCUAUUGCCUUCCC here?
The value was 1.44 ± 0.43.

UGCCCUUAAAGGUGAACCCAGU was tested. Which “HRG-induced Akt activation (log2)” value did it give?
The value was 1.22 ± 0.2.

With ACUUCACCUGGUCCACUAGCCGU as the sequence, how does the “HRG-induced Akt activation (log2)” value read?
Its value is 1.3 ± 0.29.

Which “HRG-induced Akt activation (log2)” value does the source give for UAAUACUGCCGGGUAAUGAUGGA here?
Its value is 1.08 ± 0.34.

How did the “HRG-induced Akt activation (log2)” value turn out when CCAGUUACCGCUUCCGCUACCGC was run?
Its value is 1.323 ± 0.011.

With AAAAGUAUUUGCGGGUUUUGUC as the sequence, how does the “HRG-induced Akt activation (log2)” value read?
The value was 1.58 ± 0.098.

Which “HRG-induced Akt activation (log2)” value does the source give for GAUUUCAGUGGAGUGAAGUUC here?
The value was 1.744 ± 0.0085.

How did the “HRG-induced Akt activation (log2)” value turn out when CAACCUGGAGGACUCCAUGCUG was run?
Its value is 0.949 ± 0.19.

How did the “HRG-induced Akt activation (log2)” value turn out when AUUCUGCAUUUUUAGCAAGUUC was run?
The value was 1.8 ± 0.078.

How did the “HRG-induced Akt activation (log2)” value turn out when AAUUGCACGGUAUCCAUCUGUA was run?
Its value is 1.15 ± 0.15.

How did the “HRG-induced Akt activation (log2)” value turn out when UAGCACCAUUUGAAAUCAGUGUU was run?
Its value is 1.47 ± 0.15.

CUGGUACAGGCCUGGGGGACAG was tested. Which “HRG-induced Akt activation (log2)” value did it give?
The value was 1.68 ± 0.29.

How did the “HRG-induced Akt activation (log2)” value turn out when AAGCAUUCUUUCAUUGGUUGG was run?
The value was 1.4 ± 0.014.

How did the “HRG-induced Akt activation (log2)” value turn out when ACAGAUUCGAUUCUAGGGGAAU was run?
The value was 1.75 ± 0.2.

For CUUAUCAGAUUGUAUUGUAAUU, which “HRG-induced Akt activation (log2)” value is on record?
Its value is 1.87 ± 0.024.

With AGGCAUUGACUUCUCACUAGCU as the sequence, how does the “HRG-induced Akt activation (log2)” value read?
Its value is 1.66 ± 0.32.

Which “HRG-induced Akt activation (log2)” value does the source give for AGACCCUGGUCUGCACUCUAUC here?
The value was 1.82 ± 0.41.

How did the “HRG-induced Akt activation (log2)” value turn out when ACCCGUCCCGUUCGUCCCCGGA was run?
Its value is 1.513 ± 0.0044.

For CAAUGUUUCCACAGUGCAUCAC, which “HRG-induced Akt activation (log2)” value is on record?
The value was 1.1 ± 0.42.

With UACUGCAGACAGUGGCAAUCA as the sequence, how does the “HRG-induced Akt activation (log2)” value read?
The value was 1.21 ± 0.45.

UCUCCCAACCCUUGUACCAGUG was tested. Which “HRG-induced Akt activation (log2)” value did it give?
The value was 1.51 ± 0.26.

How did the “HRG-induced Akt activation (log2)” value turn out when CUAGGUAUGGUCCCAGGGAUCC was run?
The value was 1.26 ± 0.24.

How did the “HRG-induced Akt activation (log2)” value turn out when CUGGAUGGCUCCUCCAUGUCU was run?
The value was 1.96 ± 0.42.

Which “HRG-induced Akt activation (log2)” value does the source give for GACUAUAGAACUUUCCCCCUCA here?
The value was 1.07 ± 0.064.

With AUAAUACAUGGUUAACCUCUUU as the sequence, how does the “HRG-induced Akt activation (log2)” value read?
The value was 1.2 ± 0.064.

Which “HRG-induced Akt activation (log2)” value does the source give for CGGGGUUUUGAGGGCGAGAUGA here?
Its value is 2.25 ± 0.089.

Which “HRG-induced Akt activation (log2)” value does the source give for GUGCCAGCUGCAGUGGGGGAG here?
Its value is 0.883 ± 0.036.

AGUGCCUGAGGGAGUAAGAGCCC was tested. Which “HRG-induced Akt activation (log2)” value did it give?
The value was 1.72 ± 0.04.

For GCCUGCUGGGGUGGAACCUGGU, which “HRG-induced Akt activation (log2)” value is on record?
The value was 1.81 ± 0.22.

AAAGUUCUGAGACACUCCGACU was tested. Which “HRG-induced Akt activation (log2)” value did it give?
Its value is 1.35 ± 0.082.

CGGGGCAGCUCAGUACAGGAU was tested. Which “HRG-induced Akt activation (log2)” value did it give?
The value was 0.9798 ± 0.0068.

For UAACAGUCUCCAGUCACGGCC, which “HRG-induced Akt activation (log2)” value is on record?
Its value is 1.5 ± 0.11.

Which “HRG-induced Akt activation (log2)” value does the source give for CUGUAUGCCCUCACCGCUCA here?
Its value is 2.27 ± 0.32.

For GCCCGCGUGUGGAGCCAGGUGU, which “HRG-induced Akt activation (log2)” value is on record?
The value was 1.39 ± 0.14.

With UAUGGCUUUUUAUUCCUAUGUGA as the sequence, how does the “HRG-induced Akt activation (log2)” value read?
The value was 1.27 ± 0.27.

Which “HRG-induced Akt activation (log2)” value does the source give for ACCUUGCCUUGCUGCCCGGGCC here?
Its value is 1.06 ± 0.23.

With UAGCAGCACAUCAUGGUUUACA as the sequence, how does the “HRG-induced Akt activation (log2)” value read?
The value was 1.59 ± 0.025.

How did the “HRG-induced Akt activation (log2)” value turn out when UGGCAGUGUAUUGUUAGCUGGU was run?
Its value is 2.12 ± 0.35.

With UGGUCUAGGAUUGUUGGAGGAG as the sequence, how does the “HRG-induced Akt activation (log2)” value read?
The value was 1.61 ± 0.078.

Which “HRG-induced Akt activation (log2)” value does the source give for UUGUACAUGGUAGGCUUUCAUU here?
Its value is 1.7 ± 0.31.

With AAAGCGCUUCCCUUCAGAGUG as the sequence, how does the “HRG-induced Akt activation (log2)” value read?
Its value is 1.53 ± 0.33.

UGAGUGCCGGUGCCUGCCCUG was tested. Which “HRG-induced Akt activation (log2)” value did it give?
Its value is 1.43 ± 0.08.

Which “HRG-induced Akt activation (log2)” value does the source give for CGGGCGUGGUGGUGGGGG here?
Its value is 1.56 ± 0.11.

How did the “HRG-induced Akt activation (log2)” value turn out when CUCCCACUGCUUCACUUGACUA was run?
The value was 1.32 ± 0.27.

With CCACCACCGUGUCUGACACUU as the sequence, how does the “HRG-induced Akt activation (log2)” value read?
The value was 1.84 ± 0.088.

For GUGGGGGAGAGGCUGUC, which “HRG-induced Akt activation (log2)” value is on record?
The value was 1.33 ± 0.25.

With GAAAGUGCUUCCUUUUAGAGGC as the sequence, how does the “HRG-induced Akt activation (log2)” value read?
Its value is 0.832 ± 0.68.

For AACAUUCAACGCUGUCGGUGAGU, which “HRG-induced Akt activation (log2)” value is on record?
Its value is 1.71 ± 0.13.

Which “HRG-induced Akt activation (log2)” value does the source give for AUCUGGAGGUAAGAAGCACUUU here?
Its value is 1.83 ± 0.33.

How did the “HRG-induced Akt activation (log2)” value turn out when AAAGUGCUUCCUUUUUGAGGG was run?
Its value is 0.963 ± 0.46.

Which “HRG-induced Akt activation (log2)” value does the source give for CACAUUACACGGUCGACCUCU here?
Its value is 1.173 ± 0.0052.

For CUCCUGACUCCAGGUCCUGUGU, which “HRG-induced Akt activation (log2)” value is on record?
The value was 1.43 ± 0.33.

With UGCAACUUACCUGAGUCAUUGA as the sequence, how does the “HRG-induced Akt activation (log2)” value read?
Its value is 1.61 ± 0.13.

Which “HRG-induced Akt activation (log2)” value does the source give for AAGGAGCUUACAAUCUAGCUGGG here?
Its value is 1.87 ± 0.21.

With ACAGGUGAGGUUCUUGGGAGCC as the sequence, how does the “HRG-induced Akt activation (log2)” value read?
Its value is 1.32 ± 0.087.

For UAAUUGCUUCCAUGUUU, which “HRG-induced Akt activation (log2)” value is on record?
The value was 1.75 ± 0.088.

With UAGGUUAUCCGUGUUGCCUUCG as the sequence, how does the “HRG-induced Akt activation (log2)” value read?
Its value is 1.17 ± 0.16.

Which “HRG-induced Akt activation (log2)” value does the source give for UAUGGCACUGGUAGAAUUCACU here?
The value was 1.65 ± 0.3.

With UUUCAAGCCAGGGGGCGUUUUUC as the sequence, how does the “HRG-induced Akt activation (log2)” value read?
The value was 0.989 ± 0.21.

For GCUAGUCCUGACUCAGCCAGU, which “HRG-induced Akt activation (log2)” value is on record?
The value was 2.19 ± 0.26.

Which “HRG-induced Akt activation (log2)” value does the source give for AAUCACUAACCACACGGCCAGG here?
The value was 1.79 ± 0.65.

For UACCCAUUGCAUAUCGGAGUUG, which “HRG-induced Akt activation (log2)” value is on record?
The value was 1.78 ± 0.071.
